Test system: MIA PaCa-2 cells
Assay: Bru-seq analysis for nascent RNA synthesis (log2FC of genes, GSEA gene sets)
Assay type: cell-based, human
[1] = downregulated gene sets, TFBT, 4 h, MIA PaCa-2 cells
[2] = gene set ADDYA_ERYTHROID_DIFFERENTIATION_BY_HEMIN, 4 h
[3] = gene set AMIT_SERUM_RESPONSE_60_MCF10A, 4 h
[4] = gene set BURTON_ADIPOGENESIS_10, 4 h
[5] = gene set CHANG_CORE_SERUM_RESPONSE_DN, 4 h
[6] = gene set CUI_GLUCOSE_DEPRIVATION, 4 h
[7] = gene set DACOSTA_UV_RESPONSE_VIA_ERCC3_UP, 4 h
[8] = gene set DAZARD_RESPONSE_TO_UV_NHEK_UP, 4 h
[9] = gene set DIRMEIER_LMP1_RESPONSE_EARLY, 4 h
[10] = gene set ENK_UV_RESPONSE_KERATINOCYTE_UP, 4 h
[11] = gene set GEORGANTAS_HSC_MARKERS, 4 h
[12] = gene set GO_ALCOHOL_BIOSYNTHETIC_PROCESS, 4 h
[13] = gene set GO_ALCOHOL_METABOLIC_PROCESS, 4 h
[14] = gene set GO_CELLULAR_LIPID_CATABOLIC_PROCESS, 4 h
[15] = gene set GO_CELLULAR_RESPONSE_TO_TOPOLOGICALLY_INCORRECT_PROTEIN, 4 h
[16] = gene set GO_CHROMATIN_ASSEMBLY_OR_DISASSEMBLY, 4 h
[17] = gene set GO_DNA_PACKAGING_COMPLEX, 4 h
[18] = gene set GO_ER_NUCLEUS_SIGNALING_PATHWAY, 4 h
[19] = gene set GO_FATTY_ACID_BIOSYNTHETIC_PROCESS, 4 h
[20] = gene set GO_INTRINSIC_COMPONENT_OF_ENDOPLASMIC_RETICULUM_MEMBRANE, 4 h
[21] = gene set GO_IRE1_MEDIATED_UNFOLDED_PROTEIN_RESPONSE, 4 h
[22] = gene set GO_ISOPRENOID_BIOSYNTHETIC_PROCESS, 4 h
[23] = gene set GO_LYSOSOMAL_LUMEN, 4 h
[24] = gene set GO_NUCLEAR_NUCLEOSOME, 4 h
[25] = gene set GO_ORGANIC_HYDROXY_COMPOUND_BIOSYNTHETIC_PROCESS, 4 h
[26] = gene set GO_PROTEIN_DNA_COMPLEX, 4 h
[27] = gene set GO_PROTEIN_DNA_COMPLEX_SUBUNIT_ORGANIZATION, 4 h
[28] = gene set GO_REGULATION_OF_ENDOPLASMIC_RETICULUM_STRESS_INDUCED_INTRINSIC_APOPTOTIC_SIGNALING_PATHWAY, 4 h
[29] = gene set GO_RESPONSE_TO_ENDOPLASMIC_RETICULUM_STRESS, 4 h
[30] = gene set GO_RESPONSE_TO_TOPOLOGICALLY_INCORRECT_PROTEIN, 4 h
[31] = gene set GO_SMALL_MOLECULE_BIOSYNTHETIC_PROCESS, 4 h
[32] = gene set GO_STEROID_BIOSYNTHETIC_PROCESS, 4 h
[33] = gene set GO_STEROID_METABOLIC_PROCESS, 4 h
[34] = gene set GO_STEROL_BIOSYNTHETIC_PROCESS, 4 h
[35] = gene set GO_STEROL_METABOLIC_PROCESS, 4 h
[36] = gene set HALLMARK_ADIPOGENESIS, 4 h
[37] = gene set HALLMARK_ANDROGEN_RESPONSE, 4 h
[38] = gene set HALLMARK_APOPTOSIS, 4 h
[39] = gene set HALLMARK_CHOLESTEROL_HOMEOSTASIS, 4 h
[40] = gene set HALLMARK_COAGULATION, 4 h
[41] = gene set HALLMARK_DNA_REPAIR, 4 h
[42] = gene set HALLMARK_EPITHELIAL_MESENCHYMAL_TRANSITION, 4 h
[43] = gene set HALLMARK_ESTROGEN_RESPONSE_EARLY, 4 h
[44] = gene set HALLMARK_ESTROGEN_RESPONSE_LATE, 4 h
[45] = gene set HALLMARK_FATTY_ACID_METABOLISM, 4 h
[46] = gene set HALLMARK_GLYCOLYSIS, 4 h
[47] = gene set HALLMARK_HEME_METABOLISM, 4 h

Structure (SMILES): CCN(CC)CCCC(C)Nc1cnc(C(=O)Nc2cc(C)cc3cccnc23)cn1 (stereo not drawn) [J4, 5-((5-(diethylamino)pentan-2-yl)amino)-N-(6-methylquinolin-8-yl)pyrazine-2-carboxamide]
- ES PBX1_02 [1]: −0.282
- ES PIT1_Q6 [1]: −0.263
- ES POU1F1_Q6 [1]: −0.236
- ES TAANNYSGCG_UNKNOWN [1]: −0.253
- ES TAAWWATAG_RSRFC4_Q2 [1]: −0.271
- ES TAAYNRNNTCC_UNKNOWN [1]: −0.314
- ES YKACATTT_UNKNOWN [1]: −0.221
- NES BRN2_01 [1]: −1.086
- NES CDPCR1_01 [1]: −1.030
- NES CDP_01 [1]: −1.041
- NES EN1_01 [1]: −1.062
- NES FOXJ2_02 [1]: −1.154
- NES GGCKCATGS_UNKNOWN [1]: −1.621
- NES HMEF2_Q6 [1]: −1.037
- NES HNF1_Q6 [1]: −1.145
- NES HOX13_01 [1]: −1.144
- NES IK1_01 [1]: −1.074
- NES IRF2_01 [1]: −1.322
- NES MEF2_02 [1]: −0.965
- NES MEF2_Q6_01 [1]: −0.985
- NES MEIS1BHOXA9_01 [1]: −1.269
- NES NKX3A_01 [1]: −1.213
- NES PAX8_01 [1]: −1.304
- NES PBX1_02 [1]: −1.130
- NES PIT1_Q6 [1]: −1.156
- NES POU1F1_Q6 [1]: −1.032
- NES TAANNYSGCG_UNKNOWN [1]: −1.012
- NES TAAWWATAG_RSRFC4_Q2 [1]: −1.112
- NES TAAYNRNNTCC_UNKNOWN [1]: −1.303
- NES YKACATTT_UNKNOWN [1]: −1.039
- ES [2]: 0.708
- NES [2]: 2.307
- ES [3]: 0.728
- NES [3]: 2.228
- ES [4]: 0.790
- NES [4]: 2.254
- ES [5]: 0.624
- NES [5]: 2.370
- ES [6]: 0.760
- NES [6]: 2.383
- ES [7]: 0.569
- NES [7]: 2.301
- ES [8]: 0.602
- NES [8]: 2.291
- ES [9]: 0.764
- NES [9]: 2.410
- ES [10]: 0.590
- NES [10]: 2.464
- ES [11]: 0.736
- NES [11]: 2.234
- ES [12]: 0.728
- NES [12]: 2.531
- ES [13]: 0.543
- NES [13]: 2.127
- ES [14]: 0.577
- NES [14]: 2.080
- ES [15]: 0.635
- NES [15]: 2.333
- ES [16]: 0.576
- NES [16]: 2.165
- ES (gene set GO_DNA_PACKAGING, 4 h): 0.570
- NES (gene set GO_DNA_PACKAGING, 4 h): 2.161
- ES [17]: 0.755
- NES [17]: 2.422
- ES [18]: 0.739
- NES [18]: 2.156
- ES [19]: 0.626
- NES [19]: 2.043
- ES [20]: 0.577
- NES [20]: 2.075
- ES [21]: 0.690
- NES [21]: 2.300
- ES [22]: 0.796
- NES [22]: 2.093
- ES [23]: 0.637
- NES [23]: 2.060
- ES [24]: 0.832
- NES [24]: 2.218
- ES [25]: 0.651
- NES [25]: 2.372
- ES [26]: 0.619
- NES [26]: 2.288
- ES [27]: 0.521
- NES [27]: 2.041
- ES [28]: 0.774
- NES [28]: 2.132
- ES [29]: 0.526
- NES [29]: 2.067
- ES [30]: 0.616
- NES [30]: 2.337
- ES [31]: 0.555
- NES [31]: 2.227
- ES [32]: 0.784
- NES [32]: 2.632
- ES [33]: 0.667
- NES [33]: 2.432
- ES [34]: 0.878
- NES [34]: 2.656
- ES [35]: 0.748
- NES [35]: 2.604
- ES [36]: 0.465
- NES [36]: 1.784
- ES [37]: 0.529
- NES [37]: 1.875
- ES [38]: 0.485
- NES [38]: 1.804
- ES [39]: 0.759
- NES [39]: 2.533
- ES [40]: 0.516
- NES [40]: 1.624
- ES [41]: 0.377
- NES [41]: 1.422
- ES [42]: 0.407
- NES [42]: 1.436
- ES [43]: 0.458
- NES [43]: 1.719
- ES [44]: 0.443
- NES [44]: 1.631
- ES [45]: 0.551
- NES [45]: 2.054
- ES [46]: 0.417
- NES [46]: 1.603
- ES [47]: 0.389
- NES [47]: 1.480
- ES (gene set HALLMARK_HYPOXIA, 4 h): 0.591
- NES (gene set HALLMARK_HYPOXIA, 4 h): 2.235

— patent US20220081412A1, “QUINOLINYL-PYRAZINE-CARBOXAMIDE COMPOUNDS AND USES THEREOF” (The Regents of the University of Michigan, priority 2018, published 2022)
